These results are taken from ChEMBL document CHEMBL1142920, “Second generation of 5-ethenylbenzofuroxan derivatives as inhibitors of Trypanosoma cruzi growth: synthesis, biological evaluation, and structure-activity relationships” (Bioorg Med Chem, 2007).

A value given as a limit tells only on which side of the number the result lay.

The subject of one assay is THP-1. Kind of assay: Cytotoxicity against human THP1 cells assessed as reduction of cell viability after 48 hrs. Format: cell-based. Conditions: THP-1, 48 h.
Assay [1] concerns Trypanosoma cruzi. As to the kind of experiment: Antitrypanosomatid activity against Trypanosoma cruzi CL Brener epimastigotes assessed as reduction of growth after 5 days. It is filed as functional, organism-based. The settings on record: 120 h.
For assay [2], the system named is Trypanosoma cruzi. Kind of assay: Antitrypanosomatid activity against Trypanosoma cruzi Y epimastigotes assessed as reduction of growth after 5 days. The settings on record: 120 h. It is filed as functional, organism-based.
Assay [3] in a line: Ratio of IC50 for human THP1 cells to IC50 for Trypanosoma cruzi Tulahuen 2 epimastigotes. Format: functional, THP-1.
The nature of assay [4]: Ratio of IC50 for human THP1 cells to IC50 for Trypanosoma cruzi CL Brener epimastigotes. Format: functional, THP-1.
Assay [5] can be described thus: Ratio of IC50 for human THP1 cells to IC50 for Trypanosoma cruzi Y epimastigotes. It is filed as functional, THP-1.
For assay [6], the system named is Trypanosoma cruzi. As to the kind of experiment: Antitrypanosomatid activity against Trypanosoma cruzi Tulahuen 2 epimastigotes assessed as reduction of growth after 5 days. It is filed as functional, organism-based. The settings on record: Tulahuen 2, 120 h.

As for `[O-][n+]1onc2cc(C=Cc3ccc4c(c3)OCO4)ccc21`, the IC50 with THP-1 was 81 µM.

In the case of `[O-][n+]1onc2cc(C=Cc3ccc(Cl)cc3)ccc21`, the IC50 was determined as 7.5 µM with Trypanosoma cruzi [1], 9 µM in the assay with Trypanosoma cruzi [2] and 66.7 µM in the assay on THP-1. The entries for the “Ratio IC50” value in assay [3], in assay [4] and in assay [5] were 15.5, 8.9 and 7.4, respectively.

In the case of `[O-][n+]1onc2cc(/C=C/c3ccc4c(c3)OCO4)ccc21`, the IC50 was determined as 5.3 µM in the assay with Trypanosoma cruzi [6], 9 µM in the assay on Trypanosoma cruzi [1], 7.3 µM with Trypanosoma cruzi [2] and 220 µM with THP-1. Besides, the “Ratio IC50” value in assay [3] is 41.5; in assay [4], 24.4; in assay [5] it was 30.1.

Consider `C(=C\c1ccc2nonc2c1)/c1ccc2c(c1)OCO2`, for which the IC50 in the assay with Trypanosoma cruzi [6], in the assay with Trypanosoma cruzi [1] and in the assay on Trypanosoma cruzi [2] was greater than 25 µM each time.

In the case of `C(=C/c1ccc2nonc2c1)/c1ccc2c(c1)OCO2`, the IC50 is greater than 25 µM with Trypanosoma cruzi [6], greater than 25 µM in the assay on Trypanosoma cruzi [1], greater than 25 µM in the assay with Trypanosoma cruzi [2] and greater than 400 µM in the assay with THP-1. In addition, the “Ratio IC50” value in assay [3], in assay [4] and in assay [5] was less than 40 in each case.

Turning to `CN(C)c1ccc(/C=C/c2ccc3c(c2)no[n+]3[O-])cc1`, the IC50 with Trypanosoma cruzi [6] is 15.7 µM; in the assay with Trypanosoma cruzi [1] it was 4.4 µM; in the assay with Trypanosoma cruzi [2], 22 µM; in the assay with THP-1, greater than 400 µM. Moreover, the entries for the “Ratio IC50” value in assay [3], in assay [4] and in assay [5] were greater than 25, greater than 90 and greater than 18, respectively.

In the case of `CN(C)c1ccc(/C=C/c2ccc3nonc3c2)cc1`, the IC50 with Trypanosoma cruzi [6] and with Trypanosoma cruzi [1] was greater than 25 µM each time.

As to `O=C(O)c1ccc(/C=C/c2ccc3c(c2)no[n+]3[O-])cc1`, in the assay with Trypanosoma cruzi [6], the IC50 was greater than 25 µM.

On to `O=C(O)c1ccc(/C=C\c2ccc3c(c2)no[n+]3[O-])cc1`, for which the IC50 in the assay on Trypanosoma cruzi [6] is greater than 25 µM.

`N#Cc1ccc(/C=C\c2ccc3c(c2)no[n+]3[O-])cc1`: in the assay on Trypanosoma cruzi [6], the IC50 is greater than 25 µM.

Turning to `O=[N+]([O-])c1ccccc1/C=C/c1ccc2c(c1)no[n+]2[O-]`, the IC50 with Trypanosoma cruzi [6] amounted to 26.4 µM; with Trypanosoma cruzi [1], 11.1 µM.

For the molecule `[O-][n+]1onc2cc(/C=C/c3cccc(F)c3)ccc21`, the IC50 came to 2.5 µM in the assay on Trypanosoma cruzi [6], 10 µM in the assay with Trypanosoma cruzi [1] and 7.5 µM in the assay on Trypanosoma cruzi [2].

Take `[O-][n+]1onc2cc(/C=C/c3ccc(Br)cc3)ccc21`: the results for the IC50 in the assay on Trypanosoma cruzi [6], in the assay on Trypanosoma cruzi [1] and in the assay with Trypanosoma cruzi [2] were 8.7 µM, 2.5 µM and 5.5 µM, respectively.

On to `[O-][n+]1onc2cc(/C=C/C3CCCCC3)ccc21`, for which, in the assay with Trypanosoma cruzi [6], the IC50 was determined as 13.6 µM.

For the molecule `CCCC/C=C/c1ccc2c(c1)no[n+]2[O-]`, the IC50 was 19.7 µM with Trypanosoma cruzi [6] and 12.8 µM in the assay with Trypanosoma cruzi [1].

With `O=[N+]([O-])c1ccc(/C=C/c2ccc3c(c2)no[n+]3[O-])s1`, the IC50 was found to be 6 µM in the assay with Trypanosoma cruzi [6], 3.5 µM in the assay on Trypanosoma cruzi [1] and 4.5 µM with Trypanosoma cruzi [2].

As to `[O-][n+]1onc2cc(/C=C\c3ccc4nonc4c3)ccc21`, the IC50 in the assay on Trypanosoma cruzi [6] was greater than 25 µM.

For the molecule `[O-][n+]1onc2cc(/C=C/c3ccncc3)ccc21`, the IC50 was 15 µM in the assay with Trypanosoma cruzi [6] and 24 µM in the assay on Trypanosoma cruzi [2].

Regarding `[O-][n+]1onc2cc(/C=C/c3ccc(Cl)cc3)ccc21`, the IC50 with THP-1 is greater than 200 µM.

In the case of `[O-][n+]1onc2cc(/C=C\c3ccccc3)ccc21`, the “Ratio IC50” value in assay [3] amounted to 8.9; in assay [4] it was 4; in assay [5], 7.

In the case of `[O-][n+]1onc2cc(/C=C/c3ccc(C(F)(F)F)cc3)ccc21`, the results for the IC50 with Trypanosoma cruzi [1] and in the assay with Trypanosoma cruzi [2] were 4.5 µM and 10 µM, respectively.

For `O=[N+]([O-])c1ccc(/C=C\c2ccc3c(c2)no[n+]3[O-])cc1`, the IC50 in the assay on Trypanosoma cruzi [1] came to 10.5 µM; with Trypanosoma cruzi [2], 13.5 µM.

In the case of `CC(=O)Nc1ccc(/C=C\c2ccc3c(c2)no[n+]3[O-])cc1[N+](=O)[O-]`, in the assay on Trypanosoma cruzi [6], the IC50 is 24 µM.

Turning to `C=Cc1ccc2c(c1)no[n+]2[O-]`, the IC50 in the assay with Trypanosoma cruzi [6] was greater than 25 µM.

`[O-][n+]1onc2cc(/C=C\c3ccc4c(c3)OCO4)ccc21`: the IC50 amounted to 2.9 µM in the assay with Trypanosoma cruzi [6], 9 µM with Trypanosoma cruzi [1], 8.5 µM in the assay on Trypanosoma cruzi [2] and 120 µM in the assay with THP-1. Also, the “Ratio IC50” value in assay [3] amounted to 41.4; in assay [4], 13.3; in assay [5] it was 14.1.

For the molecule `COc1ccc(/C=C/c2ccc3c(c2)no[n+]3[O-])cc1`, the results for the IC50 with Trypanosoma cruzi [6], with Trypanosoma cruzi [1] and with Trypanosoma cruzi [2] were 8 µM, 5 µM and 8.5 µM, respectively.

On to `COC(=O)/C=C/c1ccc2c(c1)no[n+]2[O-]`, for which the IC50 in the assay with Trypanosoma cruzi [6] is greater than 25 µM.

Consider `O=[N+]([O-])c1ccccc1/C=C\c1ccc2c(c1)no[n+]2[O-]`, for which the IC50 in the assay with Trypanosoma cruzi [6] stood at 24.4 µM; with Trypanosoma cruzi [1], 13.7 µM.

Regarding `[O-][n+]1onc2cc(/C=C/c3cccs3)ccc21`, the IC50 was 0.6 µM in the assay on Trypanosoma cruzi [6], 15 µM in the assay on Trypanosoma cruzi [1] and 12.2 µM in the assay with Trypanosoma cruzi [2].

With `[O-][n+]1onc2cc(/C=C/c3ccc(O)cc3)ccc21`, the values for the IC50 in the assay on Trypanosoma cruzi [6], with Trypanosoma cruzi [1] and in the assay with Trypanosoma cruzi [2] were 10.2 µM, 22.5 µM and 25 µM, respectively.

With `N#Cc1ccc(/C=C/c2ccc3c(c2)no[n+]3[O-])cc1`, in the assay on Trypanosoma cruzi [6], the IC50 was greater than 25 µM.

As to `[O-][n+]1onc2cc(/C=C\c3ccc(Cl)cc3)ccc21`, the IC50 in the assay with THP-1 stood at 97 µM.

On to `[O-][n+]1onc2cc(/C=C/c3ccccc3)ccc21`, for which the IC50 with THP-1 was found to be 149 µM.

For `CC(=O)N1CCN(c2ccc(OCC3COC(Cn4ccnc4)(c4ccc(Cl)cc4Cl)O3)cc2)CC1` (stereo not given) [KETOCONAZOLE], the “Ratio IC50” value in assay [3] came out at 4.4; in assay [4], 8.8; in assay [5], 4.5.

In the case of `CN(C/C=C/C#CC(C)(C)C)Cc1cccc2ccccc12` [TERBINAFINE], the entries for the “Ratio IC50” value in assay [4] and in assay [5] were 7.8 and 7.4, respectively.
